Experiments:
Format in all cases: in vivo
Abutilon theoprasti = assay: Greenhouse postemergence herbicidal activity on ABUTH, 20 DAT; conditions: 20 DAT
Description: (§1) For the post emergence treatment, the plants were first grown to the 2 leaf station (GS 12) and applied at GS 12-19 depending on the species. The herbicidal compositions were suspended or emulsified in water as distribution medium and sprayed using finely distributing nozzles.
(§2) The plants have been cultivated due to their individual requirements at 10 to 25° C. and. 20 to 35° C. The plants were irrigated due to their necessity.
(§3) The respective stated components A), were formulated as a 5% by weight strength emulsion concentrate containing wettol EM 31 20% and Cyclohexanone 80%. The respective stated components B), were formulated as either emulsifiable concentrates (EC), soluble liquids (SL), suspension concentrates (SC) or soluble granules (SG) as indicated in the table below. Component A, component B and the solvent system are introduced into the spray liquor used for applying the active compound. In the examples, the solvent used was water containing 1% Dash (Agnique ME 181 37.5%, Lutensit A-EP 22.5%, and Oleic Acid 5%) and 2% ammonium suflate.
(§4) In the following experiments, the herbicidal activity for the individual herbicide compounds (solo and mixture applications), the herbicidal succession was assessed 20 days after treatment (DAT). The evaluation for the damage on undesired weeds caused by the chemical compositions was carried out using a scale from 0 to 100%, compared to the untreated control plants. Here, 0 means no damage and 100 means complete destruction of the plants. The plants used in the greenhouse experiments belonged to the following species:
(§5) The value E, which corresponds to the effect (in %) that is to be expected if the activity of the individual compounds is additive, was calculated using the method of S. R. Colby (1967) “Calculating synergistic and antagonistic responses of herbicide combinations”, Weeds 15, p. 22 ff. Colby calculation for 2 way mixtures:
(§6) where: • X=effect in percent using herbicide A at an application rate a; • Y=effect in percent using herbicide B at an application rate b; • E=expected effect (in %) of A+B at application rates a+b
(§7) If the value observed in this manner is higher than the value E calculated according to Colby, a synergistic effect is present.

Ambrosia elatior = assay: Greenhouse postemergence herbicidal activity on AMBEL, 20 DAT; conditions: AMBEL, 25 gai/ha, postemergence, 20 DAT
Description: as §1, §2, §3, §4, §5, §6, §7

Polygonum convolvulus = assay: Greenhouse postemergence herbicidal activity on POLCO, 20 DAT; conditions: POLCO, postemergence, 20 DAT
Description: as §1, §2, §3, §4, §5, §6, §7

Chenopodium album = assay: Greenhouse postemergence herbicidal activity on CHEAL, 20 DAT; conditions: 20 DAT
Description: as §1, §2, §3, §4, §5, §6, §7

Conyza canadiensis = assay: Greenhouse postemergence herbicidal activity on ERICA, 20 DAT; conditions: ERICA, postemergence, 20 DAT
Description: as §1, §2, §3, §4, §5, §6, §7

Ipomoea hederacea = assay: Greenhouse postemergence herbicidal activity on IPOHE, 20 DAT; conditions: 20 DAT
Description: as §1, §2, §3, §4, §5, §6, §7

Polygonum aviculare = assay: Greenhouse postemergence herbicidal activity on POLAV, 20 DAT
Description: as §1, §2, §3, §4, §5, §6, §7

Polygonum persicaria = assay: Greenhouse postemergence herbicidal activity on POLPE, 20 DAT; conditions: POLPE, postemergence, 20 DAT
Description: as §1, §2, §3, §4, §5, §6, §7

Stellaria media = assay: Greenhouse postemergence herbicidal activity on STEME, 20 DAT; conditions: STEME, postemergence, 20 DAT
Description: as §1, §2, §3, §4, §5, §6, §7

Sinapis arvensis = assay: Greenhouse postemergence herbicidal activity on SINAR, 20 DAT; conditions: 50 gai/ha
Description: as §1, §2, §3, §4, §5, §6, §7

Kochia scoparia = assay: Greenhouse postemergence herbicidal activity on KCHSC, 20 DAT; conditions: 20 DAT
Description: as §1, §2, §3, §4, §5, §6, §7

Amaranthus retroflexus = assay: Greenhouse postemergence herbicidal activity on AMARE, 20 DAT; conditions: Amaranthus retroflexus, post-emergence, 480 h, AMARE, 31.25 gai/ha, postemergence, 20 DAT; read-out: % activity, solo (I.B)
Description: as §1, §2, §3, §4, §5, §6, §7

Amaranthus palmeri = assay: Greenhouse postemergence herbicidal activity on AMAPA, 20 DAT; conditions: Amaranthus palmeri, post-emergence, 480 h, read-out: % activity, solo (I.B)
Description: as §1, §2, §3, §4, §5, §6, §7

O=C(O)COc1ccc(Cl)cc1Cl [2,4-D]
% activity, solo 2,4-D (Abutilon theoprasti; 25 gai/ha): 50% | % activity, solo 2,4-D (Abutilon theoprasti; 50 gai/ha): 80% | % activity, solo 2,4-D (Abutilon theoprasti; 100 gai/ha): 90% | % activity, solo 2,4-D (Ambrosia elatior): 45% | % activity, solo 2,4-D (Polygonum convolvulus; 25 gai/ha): 30% | % activity, solo 2,4-D (Polygonum convolvulus; 50 gai/ha): 40% | % activity, solo 2,4-D (Polygonum convolvulus; 100 gai/ha): 70% | % activity, solo 2,4-D (Chenopodium album; 50 gai/ha): 90% | % activity, solo 2,4-D (Chenopodium album; 100 gai/ha): 90% | % activity, solo 2,4-D (Conyza canadiensis; 25 gai/ha): 60% | % activity, solo 2,4-D (Conyza canadiensis; 100 gai/ha): 75% | % activity, solo 2,4-D (Ipomoea hederacea; 25 gai/ha): 98% | % activity, solo 2,4-D (Ipomoea hederacea; 100 gai/ha): 98% | % activity, solo 2,4-D (Polygonum aviculare; 25 gai/ha): 10% | % activity, solo 2,4-D (Polygonum aviculare; 50 gai/ha): 98% | % activity, solo 2,4-D (Polygonum persicaria; 25 gai/ha): 10% | % activity, solo 2,4-D (Polygonum persicaria; 50 gai/ha): 40% | % activity, solo 2,4-D (Polygonum persicaria; 100 gai/ha): 70% | % activity, solo 2,4-D (Stellaria media; 25 gai/ha): 0% | % activity, solo 2,4-D (Stellaria media; 50 gai/ha): 0% | % activity, solo 2,4-D (Stellaria media; 100 gai/ha): 30% | % activity, solo 2,4-D (Sinapis arvensis): 80% | % activity, solo 2,4-D (Kochia scoparia; 25 gai/ha): 90%

O=C(O)c1cc(C2CC2)nc2onc(-c3ccc(OC(F)F)cc3)c12 [(I.B)]
inhibition at 31.25 g/ha (Abutilon theoprasti; Abutilon, post-emergence, 480 h, 31.25 gai/ha, read-out: % activity, solo (I.B)): 70% | inhibition at 62.5 g/ha (Abutilon theoprasti; Abutilon, post-emergence, 480 h, 62.5 gai/ha, read-out: % activity, solo (I.B)): 75% | inhibition at 125 g/ha (Abutilon theoprasti; Abutilon, post-emergence, 480 h, 125 gai/ha, read-out: % activity, solo (I.B)): 73% | inhibition at 31.25 g/ha (Amaranthus retroflexus): 89% | inhibition at 31.25 g/ha (Chenopodium album; Chenopodium album, post-emergence, 480 h, 31.25 gai/ha, read-out: % activity, solo (I.B)): 53% | inhibition at 31.25 g/ha (Kochia scoparia; Bassia scoparia, post-emergence, 480 h, 31.25 gai/ha, read-out: % activity, solo (I.B)): 43% | inhibition at 15.6 g/ha (Amaranthus palmeri; 15.6 gai/ha): 20% | inhibition at 31.25 g/ha (Amaranthus palmeri; 31.25 gai/ha): 70% | inhibition at 62.5 g/ha (Amaranthus palmeri; 62.5 gai/ha): 78%

Source: US20180343865A1, “HERBICIDAL COMPOSITIONS COMPRISING ISOXAZOLO[5,4-B]PYRIDINES” (BASF SE, priority 2015, published 2018)
